The source of these data is US9708334B2, “Substituted 2,4,5,6-tetrahydropyrrolo[3,4-c]pyrazole and 4,5,6,7-tetrahydro-2H-pyrazolo[4,3-c]pyridine compounds as GlyT1 inhibitors” (DART NEUROSCIENCE (CAYMAN) LTD., priority 2014, dated 2017).

Each structure is given as a SMILES string. Some results are limits rather than exact numbers.

The target in this assay is T1, GlyT1 (Homo sapiens, UniProt P48067).
T1 construct: expressed in transfected cells
T1 sequence (P48067 1-706): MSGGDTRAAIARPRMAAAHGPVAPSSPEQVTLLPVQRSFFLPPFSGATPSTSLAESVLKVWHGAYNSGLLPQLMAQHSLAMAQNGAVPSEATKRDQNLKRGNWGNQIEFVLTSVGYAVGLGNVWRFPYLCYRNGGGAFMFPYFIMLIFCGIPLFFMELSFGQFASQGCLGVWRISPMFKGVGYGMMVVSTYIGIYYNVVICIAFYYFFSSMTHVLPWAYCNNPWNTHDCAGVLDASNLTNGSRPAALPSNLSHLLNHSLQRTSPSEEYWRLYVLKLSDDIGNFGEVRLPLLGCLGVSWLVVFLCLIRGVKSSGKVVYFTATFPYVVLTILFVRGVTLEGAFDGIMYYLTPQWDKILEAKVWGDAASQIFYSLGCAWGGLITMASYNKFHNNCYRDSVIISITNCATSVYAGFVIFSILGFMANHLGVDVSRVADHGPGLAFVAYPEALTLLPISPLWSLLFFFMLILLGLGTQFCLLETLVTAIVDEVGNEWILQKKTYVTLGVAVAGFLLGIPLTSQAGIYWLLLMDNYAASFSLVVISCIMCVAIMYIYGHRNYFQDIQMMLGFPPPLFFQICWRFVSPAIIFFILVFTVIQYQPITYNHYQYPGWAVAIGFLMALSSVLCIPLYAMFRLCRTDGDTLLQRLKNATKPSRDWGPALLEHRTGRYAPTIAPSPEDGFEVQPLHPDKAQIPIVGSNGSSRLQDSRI
The assay can be described thus: Glycine Transporter 1 (GlyT1) uptake assay, scintillation proximity assay of [14C]-glycine uptake. Particulars: SPA, four parameter logistic fit, read-out: GlyT1 (pIC50) (converted). It is filed as cell-based. The essentials:
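[14C]-glycine uptake read by scintillation proximity on a plate counter. IC50 from four-parameter logistic fit of dose-response data.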
As to `CC(Oc1ccc(C#N)c(Cl)c1C(=O)N1CCc2c(cnn2Cc2ccccc2)C1)C(F)(F)F` (centres unmarked) [Example 195, 3-{1-Benzyl-1H 4H 5H 6H 7H-pyrazolo[4,3-c]pyridine-5-carbonyl}-2-chloro-4-[(1 1 1-trifluoropropan-2-yl)oxy]benzonitrile], the IC50 is 100 to 1000 nM.
To `CC(Oc1ccc(C(N)=O)c(Cl)c1C(=O)N1CCc2nn(-c3ccc(F)cc3)cc2C1)C(F)(F)F` (centres unmarked) [Example 196, 2-Chloro-3-[2-(4-fluorophenyl)-2H 4H 5H 6H 7H-pyrazolo[4,3-c]pyridine-5-carbonyl]-4-[(1 1 1-trifluoropropan-2-yl)oxy]benzamide] belongs 100 to 1000 nM; to `CC(Oc1ccc(C#N)c(Cl)c1C(=O)N1CCc2nn(-c3ccc(F)cc3)c(O)c2C1)C(F)(F)F` (centres unmarked) [Example 197, 2-Chloro-3-[2-(4-fluorophenyl)-3-hydroxy-2H 4H 5H 6H 7H-pyrazolo[4,3-c]pyridine-5-carbonyl]-4-[(1 1 1-trifluoropropan-2-yl)oxy]benzonitrile], greater than 10000 nM; to `COc1c(S(C)(=O)=O)ccc(OC(C)C(F)(F)F)c1C(=O)N1CCc2nn(-c3ccc(F)cc3)cc2C1` (centres unmarked) [Example 198, 2-(4-Fluorophenyl)-5-{3-methanesulfonyl-2-methoxy-6-[(1 1 1-trifluoropropan-2-yl)oxy]benzoyl}-2H 4H 5H 6H 7H-pyrazolo[4,3-c]pyridine], less than 100 nM.
The value for `N#Cc1ccc(C2(F)CCOCC2)c(C(=O)N2CCc3nn(-c4ccc(F)cc4)cc3C2)c1F` [Example 199, 2-Fluoro-4-(4-fluorooxan-4-yl)-3-[2-(4-fluorophenyl)-2H 4H 5H 6H 7H-pyrazolo[4,3-c]pyridine-5-carbonyl]benzonitrile] was 1000 to 10000 nM; that for `CC(Oc1ccc(C(=O)N(C)C)c(Cl)c1C(=O)N1CCc2nn(-c3ccc(F)cc3)cc2C1)C(F)(F)F` (centres unmarked) [Example 200, 2-Chloro-3-[2-(4-fluorophenyl)-2H 4H 5H 6H 7H-pyrazolo[4,3-c]pyridine-5-carbonyl]-N N-dimethyl-4-[(1 1 1-trifluoropropan-2-yl)oxy]benzamide] was 1000 to 10000 nM.
The value for `CC(Oc1ccc(C#N)c(Cl)c1C(=O)N1CCc2nn(-c3ccc(F)cn3)cc2C1)C(F)(F)F` (centres unmarked) [Example 201, 2-Chloro-3-[2-(5-fluoropyridin-2-yl)-2H 4H 5H 6H 7H-pyrazolo[4,3-c]pyridine-5-carbonyl]-4-[(1 1 1-trifluoropropan-2-yl)oxy]benzonitrile] was 100 to 1000 nM.
Turning to `COc1c(C#N)ccc(OC(C)C(F)(F)F)c1C(=O)N1CCc2nn(-c3ccc(F)cn3)cc2C1` (centres unmarked) [Example 202, 3-[2-(5-Fluoropyridin-2-yl)-2H 4H 5H 6H 7H-pyrazolo[4,3-c]pyridine-5-carbonyl]-2-methoxy-4-[(1 1 1-trifluoropropan-2-yl)oxy]benzonitrile], the IC50 was 100 to 1000 nM.
To `CC(Oc1ccc(C#N)c(Cl)c1C(=O)N1CCc2nn(C)cc2C1)C(F)(F)F` (centres unmarked) [Example 203, 2-Chloro-3-{2-methyl-2H 4H 5H 6H 7H-pyrazolo[4,3-c]pyridine-5-carbonyl}-4-[(1 1 1-trifluoropropan-2-yl)oxy]benzonitrile] belongs 1000 to 10000 nM; to `COc1c(C#N)ccc(OC(C)C(F)(F)F)c1C(=O)N1CCc2nn(C)cc2C1` (centres unmarked) [Example 204, 2-Methoxy-3-{2-methyl-2H 4H 5H 6H 7H-pyrazolo[4,3-c]pyridine-5-carbonyl}-4-[(1 1 1-trifluoropropan-2-yl)oxy]benzonitrile], 100 to 1000 nM.
To `COc1cccc(-n2cc3c(n2)CCN(C(=O)c2c(OC(C)C(F)(F)F)ccc(C#N)c2Cl)C3)c1` (centres unmarked) [Example 205, 2-Chloro-3-[2-(3-methoxyphenyl)-2H 4H 5H 6H 7H-pyrazolo[4,3-c]pyridine-5-carbonyl]-4-[(1 1 1-trifluoropropan-2-yl)oxy]benzonitrile] belongs 100 to 1000 nM; to `COc1ccc(-n2cc3c(n2)CCN(C(=O)c2c(OC(C)C(F)(F)F)ccc(C#N)c2Cl)C3)cc1` (centres unmarked) [Example 206, 2-Chloro-3-[2-(4-methoxyphenyl)-2H 4H 5H 6H 7H-pyrazolo[4,3-c]pyridine-5-carbonyl]-4-[(1 1 1-trifluoropropan-2-yl)oxy]benzonitrile], 100 to 1000 nM.
To `COc1ccc(-n2cc3c(n2)CCN(C(=O)c2c(OC(C)C(F)(F)F)ccc(C#N)c2OC)C3)cc1` (centres unmarked) [Example 207, 2-Methoxy-3-[2-(4-methoxyphenyl)-2H 4H 5H 6H 7H-pyrazolo[4,3-c]pyridine-5-carbonyl]-4-[(1 1 1-trifluoropropan-2-yl)oxy]benzonitrile] belongs 100 to 1000 nM; to `CCC(F)(CC)c1ccc(C#N)c(OC)c1C(=O)N1CCc2nn(-c3ccc(F)cc3)cc2C1` [Example 208], 1000 to 10000 nM.
`COc1c(C#N)ccc(OC(C)C(F)(F)F)c1C(=O)N1CCc2c(cnn2-c2ccc(F)cn2)C1` (centres unmarked) [Example 209, 3-[1-(5-Fluoropyridin-2-yl)-1H 4H 5H 6H 7H-pyrazolo[4,3-c]pyridine-5-carbonyl]-2-methoxy-4-[(1 1 1-trifluoropropan-2-yl)oxy]benzonitrile]: the IC50 was less than 100 nM.
The value for `CC(Oc1ccc(C#N)c(Cl)c1C(=O)N1CCc2c(cnn2-c2ccc(F)cn2)C1)C(F)(F)F` (centres unmarked) [Example 210, 2-Chloro-3-[1-(5-fluoropyridin-2-yl)-1H 4H 5H 6H 7H-pyrazolo[4,3-c]pyridine-5-carbonyl]-4-[(1 1 1-trifluoropropan-2-yl)oxy]benzonitrile] was less than 100 nM; that for `CC(Oc1ccc(C#N)c(Cl)c1C(=O)N1CCc2nn(-c3cccnc3)cc2C1)C(F)(F)F` (centres unmarked) [Example 211, 2-Chloro-3[2-(pyridin-3-yl)-2H 4H 5H 6H 7H-pyrazolo[4,3-c]pyridine-5-carbonyl]-4-[(1 1 1-trifluoropropan-2-yl)oxy]benzonitrile] was 100 to 1000 nM; that for `COc1c(C#N)ccc(C2(F)CCC2)c1C(=O)N1CCc2nn(-c3ccc(F)cn3)cc2C1` [Example 212, 4-(1-Fluorocyclobutyl)-3-[2-(5-fluoropyridin-2-yl)-2H 4H 5H 6H 7H-pyrazolo[4,3-c]pyridine-5-carbonyl]-2-methoxybenzonitrile] was 100 to 1000 nM.
To `COc1c(C#N)ccc(OC(C)C(F)(F)F)c1C(=O)N1CCc2nn(-c3cccnc3)cc2C1` (centres unmarked) [Example 213, 2-Methoxy-3-[2-(pyridin-3-yl)-2H 4H 5H 6H 7H-pyrazolo[4,3-c]pyridine-5-carbonyl]-4-[(1 1 1-trifluoropropan-2-yl)oxy]benzonitrile] belongs less than 100 nM.
To `CC(Oc1ccc(C#N)c(Cl)c1C(=O)N1CCc2c(cnn2C2CCCCC2)C1)C(F)(F)F` (centres unmarked) [Example 214, 2-Chloro-3-{1-cyclohexyl-1H 4H 5H 6H 7H-pyrazolo[4,3-c]pyridine-5-carbonyl}-4-[(1 1 1-trifluoropropan-2-yl)oxy]benzonitrile.] belongs 100 to 1000 nM.
For the compound `COc1c(C#N)ccc(OC(C)C(F)(F)F)c1C(=O)N1CCc2c(cnn2C2CCCCC2)C1` (centres unmarked) [Example 215, 3-{1-Cyclohexyl-1H 4H 5H 6H 7H-pyrazolo[4,3-c]pyridine-5-carbonyl}-2-methoxy-4-[(1 1 1-trifluoropropan-2-yl)oxy]benzonitrile], the IC50 was less than 100 nM.
Consider `CC(Oc1ccc(C#N)c(Cl)c1C(=O)N1CCc2nn(-c3ccccn3)cc2C1)C(F)(F)F` (centres unmarked) [Example 216, 2-Chloro-3-[2-(pyridin-2-yl)-2H 4H 5H 6H 7H-pyrazolo[4,3-c]pyridine-5-carbonyl]-4-[(1 1 1-trifluoropropan-2-yl)oxy]benzonitrile], for which the IC50 was 100 to 1000 nM.
As to `COc1c(C#N)ccc(OC(C)C(F)(F)F)c1C(=O)N1CCc2nn(-c3ccccn3)cc2C1` (centres unmarked) [Example 217, 2-Methoxy-3-[2-(pyridin-2-yl)-2H 4H 5H 6H 7H-pyrazolo[4,3-c]pyridine-5-carbonyl]-4-[(1 1 1-trifluoropropan-2-yl)oxy]benzonitrile], the IC50 was 100 to 1000 nM.
To `COc1c(C#N)ccc(OC(C)C(F)(F)F)c1C(=O)N1CCc2c(cnn2-c2cccnc2)C1` (centres unmarked) [Example 218, 2-Methoxy-3-[1-(pyridin-3-yl)-1H 4H 5H 6H 7H-pyrazolo[4,3-c]pyridine-5-carbonyl]-4-[(1 1 1-trifluoropropan-2-yl)oxy]benzonitrile] belongs less than 100 nM; to `CC(Oc1ccc(C#N)c(Cl)c1C(=O)N1CCc2nn(-c3ccncc3)cc2C1)C(F)(F)F` (centres unmarked) [Example 219, 2-Chloro-3-[2-(pyridin-4-yl)-2H 4H 5H 6H 7H-pyrazolo[4,3-c]pyridine-5-carbonyl]-4-[(1 1 1-trifluoropropan-2-yl)oxy]benzonitrile], less than 100 nM; to `COc1c(C#N)ccc(OC(C)C(F)(F)F)c1C(=O)N1CCc2nn(-c3ccncc3)cc2C1` (centres unmarked) [Example 220, 2-Methoxy-3-[2-(pyridin-4-yl)-2H 4H 5H 6H 7H-pyrazolo[4,3-c]pyridine-5-carbonyl]-4-[(1 1 1-trifluoropropan-2-yl)oxy]benzonitrile], less than 100 nM.
